Measurements published in publication PMC5591244, “Novel selective, potent naphthyl TRPM8 antagonists identified through a combined ligand- and structure-based virtual screening approach” (Scientific Reports, 2017).

Assays:
Type in all cases: cell-based
TRPM8 = molecular target: T1, TRPM8 (Homo sapiens, UniProt Q7Z2W7); experiment: Calcium mobilization assay (HTS and dose-response) on HEK-293/hTRPM8 cells; conditions: for Max inhibition: HTS campaign, Cooling agent 10 30 μM, %inhibition values obtained at 10 mM (so in the source)
T1 construct: expressed in transfected cells
T1 sequence (Q7Z2W7 whole entry): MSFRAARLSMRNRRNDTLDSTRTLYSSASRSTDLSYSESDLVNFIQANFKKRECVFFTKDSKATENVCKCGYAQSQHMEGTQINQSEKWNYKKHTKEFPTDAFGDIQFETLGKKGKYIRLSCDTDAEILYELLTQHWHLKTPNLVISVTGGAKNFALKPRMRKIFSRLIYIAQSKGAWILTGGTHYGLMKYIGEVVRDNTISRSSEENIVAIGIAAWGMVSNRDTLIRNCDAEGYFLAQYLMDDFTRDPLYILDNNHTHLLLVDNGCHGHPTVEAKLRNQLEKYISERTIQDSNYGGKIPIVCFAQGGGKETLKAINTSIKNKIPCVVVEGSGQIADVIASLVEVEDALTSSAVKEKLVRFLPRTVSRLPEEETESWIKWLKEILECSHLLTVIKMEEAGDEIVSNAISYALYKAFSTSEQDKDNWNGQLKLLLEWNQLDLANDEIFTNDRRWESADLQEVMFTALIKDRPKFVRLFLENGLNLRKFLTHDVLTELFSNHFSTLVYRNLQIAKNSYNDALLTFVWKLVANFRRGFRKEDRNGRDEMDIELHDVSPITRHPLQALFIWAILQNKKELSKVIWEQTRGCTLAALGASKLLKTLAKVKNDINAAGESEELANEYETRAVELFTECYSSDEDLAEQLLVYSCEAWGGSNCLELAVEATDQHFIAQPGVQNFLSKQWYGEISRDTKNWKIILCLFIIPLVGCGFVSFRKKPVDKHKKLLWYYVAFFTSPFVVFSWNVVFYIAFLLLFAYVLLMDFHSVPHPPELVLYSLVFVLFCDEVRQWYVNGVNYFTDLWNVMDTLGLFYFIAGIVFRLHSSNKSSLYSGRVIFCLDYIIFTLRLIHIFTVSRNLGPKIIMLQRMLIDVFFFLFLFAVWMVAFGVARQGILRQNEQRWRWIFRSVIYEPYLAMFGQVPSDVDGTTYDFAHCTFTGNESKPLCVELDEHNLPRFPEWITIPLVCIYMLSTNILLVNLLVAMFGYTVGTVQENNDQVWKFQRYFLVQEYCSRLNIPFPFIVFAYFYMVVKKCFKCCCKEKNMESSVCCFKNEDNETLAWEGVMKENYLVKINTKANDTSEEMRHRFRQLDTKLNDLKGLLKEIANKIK
Method: All experiments were performed on HEK-293/hTRPM8 cells stably transfected with the human TRPM8 gene, except for site-directed mutagenesis analysis, which was performed on transient transfectants. In details, HEK-293 cells (ATCC, Manassas, Virginia) were transfected with the pcDNA3/hTRPM8 vector by electroporation (300 Volts, 950 µF) then selected with medium containing 0,8 mg/ml G418 for 10–15 days. Then the stable transfected pool underwent two rounds of limiting dilutions, in eight 96 well plates at a cell density of 1 cell/well, in order to obtain pure clones. The best responder clone was selected based on its response to 1 mM menthol in calcium mobilization experiments. HEK-293/hTRPM8 cells were maintained in EMEM (Minimum Essential Medium Eagle with Earl’s salts Balanced Salt Solution, LONZA) supplemented with 2 mM Ultraglutamine1 (Lonza), 1% Penicillin/Streptomycin (LONZA), 10% of Fetal Bovine Serum (Euroclone) and 0,4 mg/mL G418 (InvivoGen).
For calcium mobilization assays, cells were seeded at 10,000 cells/well in 384-well plates coated with poly-D-lysine (MATRIX black/clear bottom #4332-CPL, Thermo Scientific, Waltham, MA, USA) in complete medium.Twenty-four hours after seeding, the plates were washed with Tyrode’s buffer with a Bio-Tek-ELx405 Microplate Washer (Merck Millipore; Billerica, MA, USA), and then 10 µl/well of a solution containing the fluorescent Ca^2+ indicator Fluo-4 NW dye was added. Cells were incubated for 1 h at room temperature before test compounds were added at 3X the concentration with respect to the final wanted concentration to be tested with a FLIPR TETRA system (Molecular Devices, Sunnyvale, CA, USA). Calcium mobilization was monitored over a period of 5 min. A second injection of 10 µl/well of a reference agonist (icilin or Cooling agent 10) at 4X concentration in assay buffer was performed using the FLIPR TETRA system. Of note, for selectivity assays, the following agonists were used: 10 μM AITC (allyl isothiocyanate) for TRPA1; 100 nM Capsaicin for TRPV1; and 20 nM GSK1016790A for TRPV4.
After addition of the agonist, the fluorescence signal was recorded over the next 3 min. The bioactivity exerted by the compounds was expressed as a percentage of inhibition. The percentage scale is defined as follows: 100% inhibition was considered as the relative fluorescence units (RFUs) of the value of the MIN controls in the second injection (antagonist Capsazepine at IC100 = 50 µM) and 0% inhibition was considered as the RFU values of the value of the MAX controls in the second injection (Cooling agent 10 at EC80 = 30 µM). Data from four replicates were analyzed using GraphPad PRISM® software (version 5, GraphPad Software Inc.) to calculate the mean and standard error of the mean, to create sigmoidal concentration-response curves and to calculate IC50 values.

TRPM8 Y745A = molecular target: T2, TRPM8 Y745A (Homo sapiens, UniProt Q7Z2W7, Y745A); experiment: Calcium mobilization on transiently transfected TRPM8 Y745A mutant; conditions: agonist calcium response
T2 construct: expressed in transfected cells; host or cells: HEK-293, transient (Lipofectamine 2000)
T2 sequence (Q7Z2W7 whole entry Y745A): as the sequence (Q7Z2W7 whole entry) above, with Y745A counted along it
Excerpt: (§1) Single point mutations were introduced in the hTRPM8-coding sequence, and the mutated TRPM8 was cloned as N-terminal c-myc tagged version into the pcDNA3 expression vector. This was done in that way that the single variations could be easily swapped from the myc-tagged expression construct into the non-tagged TRPM8 wild type expression construct.
(§2) The list of the variants is the following: variant 1, t2233g, a2234c (=Y745A); variant 2, a2236g, t2237c (=I746A); variant 3, a2395g, a2396c (=N799A) and variant 4, a2405c (D802A). The cloning project comprised three steps. First of all, a unique XhoI restriction site was inserted by site-directed mutagenesis (SDM) using DNA of the pcDNA3_TRPM8 construct as template. The 0.6 kb DNA fragment between the unique 5′ XhoI (introduced) and 3′ BamHI (already present) restriction sites comprised all positions of the four single point mutations and could be later used for their insertion as well as swapping between myc-tagged and non-tagged TRPM8 versions. In a second step, the c-myc tag sequence was introduced embedded within the TRPM8 coding sequence by PCR primers in two partially overlapping PCRs that were then joined by bridge PCR with the external 5′KpnI and internal 3′EcoRI primers and in the last step the point mutations 1 to 4 were inserted into pcDNA3_c-myc-TRPM8 by exchanging the wild type 5′XhoI-3′BamHI fragment (0.6 kb) with each of the corresponding variation fragment derived from synthetic DNA (provided by GeneArt, ThermoFisher Scientific).The myc-tagged constructs were transiently transfected in HEK-293 cells with Lipofectamine 2000 (Invitrogen) according to the manufacturer’s protocol. The pcDNA vectors containing the wt myc-tagged TRPM8 gene and the empty pcDNA3 (mock) were separately transfected into HEK-293 cells as controls. […] The obtained data from at least four wells (as replicates) were analyzed with GraphPad PRISM® software (version 5, GraphPad Software Inc.) to calculate the mean and standard error of the mean[58], to create sigmoidal concentration-response curves and to calculate IC50 values.

TRPM8 I746A = molecular target: T3, TRPM8 I746A (Homo sapiens, UniProt Q7Z2W7, I746A); experiment: Calcium mobilization on transiently transfected TRPM8 I746A mutant; conditions: agonist calcium response, I746A
T3 construct: expressed in transfected cells; host or cells: HEK-293, transient (Lipofectamine 2000)
T3 sequence (Q7Z2W7 whole entry I746A): as the sequence (Q7Z2W7 whole entry) above, with I746A counted along it
Excerpt: as §1
(§3) The list of the variants is the following: variant 1, t2233g, a2234c (=Y745A); variant 2, a2236g, t2237c (=I746A); variant 3, a2395g, a2396c (=N799A) and variant 4, a2405c (D802A). The cloning project comprised three steps. First of all, a unique XhoI restriction site was inserted by site-directed mutagenesis (SDM) using DNA of the pcDNA3_TRPM8 construct as template. The 0.6 kb DNA fragment between the unique 5′ XhoI (introduced) and 3′ BamHI (already present) restriction sites comprised all positions of the four single point mutations and could be later used for their insertion as well as swapping between myc-tagged and non-tagged TRPM8 versions. In a second step, the c-myc tag sequence was introduced embedded within the TRPM8 coding sequence by PCR primers in two partially overlapping PCRs that were then joined by bridge PCR with the external 5′KpnI and internal 3′EcoRI primers and in the last step the point mutations 1 to 4 were inserted into pcDNA3_c-myc-TRPM8 by exchanging the wild type 5′XhoI-3′BamHI fragment (0.6 kb) with each of the corresponding variation fragment derived from synthetic DNA (provided by GeneArt, ThermoFisher Scientific).The myc-tagged constructs were transiently transfected in HEK-293 cells with Lipofectamine 2000 (Invitrogen) according to the manufacturer’s protocol. The pcDNA vectors containing the wt myc-tagged TRPM8 gene and the empty pcDNA3 (mock) were separately transfected into HEK-293 cells as controls. Cells were transfected and seeded on the same day at 17,500 cells/well in poly-D-lysine-coated 384-well plates (MATRIX #4332-CPL). Twenty-four hours after seeding, the activity of transfected TRPM8 receptors was tested using the calcium mobilization assay as described above. The analysis was performed on the basis of ΔF/F° (normalized MAX-MIN), where ΔF is the MAX between time points 117 and 182 minus the MIN between time points TP114 and TP116, and F° is the basal signal at time point TP0. The obtained data from at least four wells (as replicates) were analyzed with GraphPad PRISM® software (version 5, GraphPad Software Inc.) to calculate the mean and standard error of the mean[58], to create sigmoidal concentration-response curves and to calculate IC50 values.

wt TRPM8 = molecular target: T4, wt TRPM8 (Homo sapiens, UniProt Q7Z2W7); experiment: Calcium mobilization on HEK-293 cells transiently transfected with wt myc-tagged TRPM8; conditions: agonist calcium response, wt; read-out: pIC50 of the agonist (agonist dose response), wt TRPM8 (converted)
T4 construct: expressed in transfected cells; host or cells: HEK-293, transient (Lipofectamine 2000)
T4 sequence (Q7Z2W7 whole entry): as the sequence (Q7Z2W7 whole entry) above
Excerpt: as §1
The list of the variants is the following: variant 1, t2233g, a2234c (=Y745A); variant 2, a2236g, t2237c (=I746A); variant 3, a2395g, a2396c (=N799A) and variant 4, a2405c (D802A). The cloning project comprised three steps. First of all, a unique XhoI restriction site was inserted by site-directed mutagenesis (SDM) using DNA of the pcDNA3_TRPM8 construct as template. The 0.6 kb DNA fragment between the unique 5′ XhoI (introduced) and 3′ BamHI (already present) restriction sites comprised all positions of the four single point mutations and could be later used for their insertion as well as swapping between myc-tagged and non-tagged TRPM8 versions. […] The obtained data from at least four wells (as replicates) were analyzed with GraphPad PRISM® software (version 5, GraphPad Software Inc.) to calculate the mean and standard error of the mean[58], to create sigmoidal concentration-response curves and to calculate IC50 values.

TRPM8 D802A = molecular target: T5, TRPM8 D802A (Homo sapiens, UniProt Q7Z2W7, D802A); experiment: Calcium mobilization on transiently transfected TRPM8 D802A mutant; conditions: agonist calcium response, D802A
T5 construct: expressed in transfected cells; host or cells: HEK-293, transient (Lipofectamine 2000)
T5 sequence (Q7Z2W7 whole entry D802A): as the sequence (Q7Z2W7 whole entry) above, with D802A counted along it
Excerpt: as §1, §2

TRPM8 N799A = molecular target: T6, TRPM8 N799A (Homo sapiens, UniProt Q7Z2W7, N799A); experiment: Calcium mobilization on transiently transfected TRPM8 N799A mutant; conditions: agonist calcium response, N799A
T6 construct: expressed in transfected cells; host or cells: HEK-293, transient (Lipofectamine 2000)
T6 sequence (Q7Z2W7 whole entry N799A): as the sequence (Q7Z2W7 whole entry) above, with N799A counted along it
Excerpt: as §1, §3

| Structure (SMILES) | Max inhibition (TRPM8) | Agonist activity on Y745A mutant (words) (TRPM8 Y745A) | Agonist activity on I746A mutant (words) (TRPM8 I746A) | Agonist activity on N799A mutant (words) (TRPM8 N799A) | also measured |
| --- | --- | --- | --- | --- | --- |
| Oc1cc2c(cc1O)CN(C(=S)NCCc1ccc(Cl)cc1)CCC2 [Capsazepine, reference compound] |  |  |  |  | IC100 (TRPM8; MIN control antagonist): 50 µM |
| O=C(COc1ccc2ccccc2c1)NCc1cccnc1 [Compound 3] | 0.00% |  |  |  |  |
| O=C1NC(c2cccc([N+](=O)[O-])c2)=CCN1c1ccccc1O [Icilin, icilin] |  | abrogated agonist activity | minimal residual activation | abrogated agonist activity | Agonist activity on Y745A mutant (words) (TRPM8 Y745A; listed as icilin): completely abolished the activation; EC50 (TRPM8 I746A; read-out: pIC50 of the agonist (agonist dose response), I746A (converted)): 0.126 µM; EC50 (wt TRPM8): 0.251 µM; Agonist activity on D802A mutant (words) (TRPM8 D802A): abrogated agonist activity; Agonist activity on D802A mutant (words) (TRPM8 D802A; listed as icilin): completely abolished TRPM8 activation; Agonist activity on N799A mutant (words) (TRPM8 N799A; listed as icilin): completely abolished TRPM8 activation |
| O=C(NCOCc1ccc2ccccc2c1)c1cncc(Br)c1 [Compound 4] | 0.00% |  |  |  |  |
| CC1CCC(C(C)C)C(OCC(O)CO)C1 (stereo not drawn) [Cooling agent 10] |  | completely abolished the activation | minimal residual activation | did not affect either maximal TRPM8 activation or EC50 | Agonist activity on I746A mutant (words) (TRPM8 I746A; listed as Cooling Agent 10): strongly reduced agonist activity; EC80 (TRPM8; MAX control agonist): 30 µM |
| O=C(NCOCc1ccc2ccccc2c1)c1cccnc1 [Compound 2] | 7.92% |  |  |  |  |
